Assay results published in patent US20220227781A1, “PYRIMIDINE DERIVATIVE INHIBITING GROWTH OF CANCER CELL AND MEDICINAL USE THEREOF” (ONCOBIX CO., LTD., priority 2019, published 2022).

Molecular target: EXON 20 Insertion (NPG) Ba/F3 Cell (Homo sapiens, UniProt P00533, INS772GNP, cells depend on it)
Assay: Measurement of inhibitory effect on cancer cell growth (MTT assay)
Conditions: read-out: Measured value of inhibitory effect on cancer cell growth (IC50), EXON 20 Insertion (NPG) Ba/F3 Cell, Ba/F3 cells expressing EGFR with NPG inserted at D770_N771, 72 hours treatment, read at 595 nm
Experimental: First, the present invention used a vector in which NPG of 3 amino acids were added to D770_N771 site of the most frequent alterations, and used the Ba/F3 cell line for expression of these genes.
Pre-constructed stable cells of 1×10^4 cells were placed in a 96 well plate and incubated overnight, and then the compounds of Examples were treated at a dose dependent manner After 72 hours, MTT reagent was added, and after 3 hours, stop buffer (10% SDS) was added.

Chain of EXON 20 Insertion (NPG) Ba/F3 Cell (P00533 with tags, fused parts or gaps INS772GNP): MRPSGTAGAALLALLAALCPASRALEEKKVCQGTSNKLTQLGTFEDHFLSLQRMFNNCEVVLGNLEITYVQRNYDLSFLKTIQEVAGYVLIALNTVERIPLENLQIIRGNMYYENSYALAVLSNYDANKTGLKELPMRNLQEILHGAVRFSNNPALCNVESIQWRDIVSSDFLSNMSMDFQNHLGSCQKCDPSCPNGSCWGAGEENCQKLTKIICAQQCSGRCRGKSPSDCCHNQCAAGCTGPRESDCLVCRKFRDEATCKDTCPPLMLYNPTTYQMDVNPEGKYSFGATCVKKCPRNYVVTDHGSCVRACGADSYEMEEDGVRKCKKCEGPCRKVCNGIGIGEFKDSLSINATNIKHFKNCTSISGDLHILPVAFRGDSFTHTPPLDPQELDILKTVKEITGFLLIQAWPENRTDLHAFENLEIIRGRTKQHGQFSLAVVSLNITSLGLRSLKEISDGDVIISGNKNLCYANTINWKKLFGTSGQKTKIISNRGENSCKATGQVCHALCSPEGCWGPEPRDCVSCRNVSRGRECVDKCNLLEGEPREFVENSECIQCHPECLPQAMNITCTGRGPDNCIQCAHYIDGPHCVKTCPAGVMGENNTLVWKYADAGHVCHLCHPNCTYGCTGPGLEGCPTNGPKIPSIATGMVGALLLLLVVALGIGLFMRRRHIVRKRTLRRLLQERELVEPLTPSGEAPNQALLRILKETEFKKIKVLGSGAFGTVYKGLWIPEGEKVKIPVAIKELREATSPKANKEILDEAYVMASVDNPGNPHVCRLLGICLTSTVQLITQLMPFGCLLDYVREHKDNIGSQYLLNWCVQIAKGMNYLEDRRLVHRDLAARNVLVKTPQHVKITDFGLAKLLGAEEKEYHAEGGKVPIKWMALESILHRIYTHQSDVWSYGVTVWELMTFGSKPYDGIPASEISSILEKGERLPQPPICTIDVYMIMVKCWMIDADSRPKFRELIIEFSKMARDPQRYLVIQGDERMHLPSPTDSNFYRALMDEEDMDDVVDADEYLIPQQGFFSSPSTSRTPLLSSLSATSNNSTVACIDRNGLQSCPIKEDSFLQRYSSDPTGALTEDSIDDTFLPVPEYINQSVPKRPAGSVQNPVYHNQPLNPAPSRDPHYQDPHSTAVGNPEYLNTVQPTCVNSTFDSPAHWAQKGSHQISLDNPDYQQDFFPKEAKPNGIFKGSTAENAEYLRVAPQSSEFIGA

GI50 [nM]	SMILES
300 to 1000	COc1cc(N(C)CCN(C)C)c(NC(C)C)cc1Nc1ncc(Cl)c(Nc2ccccc2N(C)S(C)(=O)=O)n1 [Example 1, N-(2-((5-chloro-2-((4-((2-(dimethylamino)ethyl)(methyl)amino)-5-(isopropylamino)-2-methoxyphenyl)amino)pyrimidin-4-yl)amino)phenyl)-N-methylmethanesulfonamide]
300 to 1000	COc1cc(N2CCC(N3CCN(C)CC3)CC2)c(NC(C)C)cc1Nc1nc(Nc2ccccc2N(C)S(C)(=O)=O)c2sccc2n1 [Example 4, N-(2-((2-((5-(isopropylamino)-2-methoxy-4-(4-(4-methylpiperazin-1-yl)piperidin-1-yl)phenyl)amino)thieno[3,2-d]pyrimidin-4-yl)amino)phenyl)-N-methylmethanesulfonamide]
300 to 1000	COc1cc(N(C)CCN(C)C)c(NC(C)C)cc1Nc1nc(Nc2ccccc2N(C)S(C)(=O)=O)c2sccc2n1 [Example 2, N-(2-((2-((4-((2-(dimethylamino)ethyl)(methyl)amino)-5-(isopropylamino)-2-methoxyphenyl)amino)thieno[3,2-d]pyrimidin-4-yl)amino)phenyl)-N-methylmethanesulfonamide]
100 to 300	C=CC(=O)Nc1cc(Nc2nc(Nc3ccccc3N(C)S(C)(=O)=O)c3sccc3n2)c(OC)cc1N1CCC(N(C)C)CC1 [Example 9, N-(2-(4-(dimethylamino)piperidin-1-yl)-4-methoxy-5-((4-((2-(N-methylmethylsulfonamido)phenyl)amino)thieno[3,2-d]pyrimidin-2-yl)amino)phenyl)acrylamide]
300 to 1000	COc1cc(N2CCC(N3CCN(C)CC3)CC2)c(NC(C)C)cc1Nc1ncc(Cl)c(Nc2ccccc2N(C)S(C)(=O)=O)n1 [Example 5, N-(2-((5-chloro-2-((5-(isopropylamino)-2-methoxy-4-(4-(4-methylpiperazin-1-yl)piperidin-1-yl)phenyl)amino)pyrimidin-4-yl)amino)phenyl)-N-methylmethanesulfonamide]
< 100	C=CC(=O)Nc1cc(Nc2ncc(C(=O)OC3CC3)c(Nc3ccccc3N(C)S(C)(=O)=O)n2)c(OC)cc1N(C)CCN(C)C [Example 16, CYCLOPROPYL 2-((5-acrylamido-4-((2-(dimethylamino)ethyl)(methyl)amino)-2-methoxyphenyl)amino)-4-((2-(N-methylmethylsulfonamido)phenyl)amino)pyrimidine-5-carboxylate]
300 to 1000	COc1cc(N2CCC(N(C)C)CC2)c(NC(C)C)cc1Nc1ncc(Cl)c(Nc2ccccc2N(C)S(C)(=O)=O)n1 [Example 6, N-(2-((5-chloro-2-((4-(4-(dimethylamino)piperidin-1-yl)-5-(isopropylamino)-2-methoxyphenyl)amino)pyrimidin-4-yl)amino)phenyl)-N-methylmethanesulfonamide]
300 to 1000	COc1cc(N2CCC(N(C)C)CC2)c(NC(C)C)cc1Nc1nc(Nc2ccccc2N(C)S(C)(=O)=O)c2sccc2n1 [Example 3, N-(2-((2-((4-(4-(dimethylamino)piperidin-1-yl)-5-(isopropylamino)-2-methoxyphenyl)amino)thieno[3,2-d]pyrimidin-4-yl)amino)phenyl)-N-methylmethanesulfonamide]
100 to 300	C=CC(=O)Nc1cc(Nc2nc(Nc3ccccc3N(C)S(C)(=O)=O)c3sccc3n2)c(OC)cc1N1CCC(N2CCN(C)CC2)CC1 [Example 7, N-(4-methoxy-5-((4-((2-(N-methylmethylsulfonamido)phenyl)amino)thieno[3,2-d]pyrimidin-2-yl)amino)-2-(4-(4-methylpiperazin-1-yl)piperidin-1-yl)phenyl)acrylamide]

Further lines, the molecule ahead of its results:

SMILES	GI50 [nM]
C=CC(=O)Nc1cc(Nc2ncc(C(=O)OC(C)C)c(Nc3ccccc3N(C)S(C)(=O)=O)n2)c(OC)cc1N(C)CCN(C)C [Example 15, ISOPROPYL 2-((5-acrylamido-4-((2-(dimethylamino)ethyl)(methyl)amino)-2-methoxyphenyl)amino)-4-((2-(N-methylmethylsulfonamido)phenyl)amino)pyrimidine-5-carboxylate]	< 100
C=CC(=O)Nc1cc(Nc2ncc(Cl)c(Nc3ccc4nccnc4c3N(C)S(C)(=O)=O)n2)c(OC)cc1N(C)CCN(C)C [Example 11, N-(5-((5-chloro-4-((5-(N-methylmethylsulfonamido)quinoxalin-6-yl)amino)pyrimidin-2-yl)amino)-2-((2-(dimethylamino)ethyl)(methyl)amino)-4-methoxyphenyl)acrylamide]	< 100
C=CC(=O)Nc1cc(Nc2ncc(Cl)c(Nc3ccc4nccnc4c3NS(C)(=O)=O)n2)c(OC)cc1N(C)CCN(C)C [Example 12, N-(5-((5-chloro-4-((5-(methylsulfonamido)quinoxalin-6-yl)amino)pyrimidin-2-yl)amino)-2-((2-(dimethylamino)ethyl)(methyl)amino)-4-methoxyphenyl)acrylamide]	< 100
C=CC(=O)Nc1cc(Nc2ncc(Cl)c(Nc3ccccc3NS(C)(=O)=O)n2)c(OC)cc1N(C)CCN(C)C [Example 10, N-(5-((5-chloro-4-((2-(methylsulfonamido)phenyl)amino)pyrimidin-2-yl)amino)-2-((2-(dimethylamino)ethyl)(methyl)amino)-4-methoxyphenyl)acrylamide]	< 100
C=CC(=O)Nc1cc(Nc2cc(Nc3ccccc3N(C)S(C)(=O)=O)ncn2)c(OC)cc1N(C)CCN(C)C [Example 17, N-(2-((2-(dimethylamino)ethyl)(methyl)amino)-4-methoxy-5-((6-((2-(N-methylmethylsulfon amido)phenyl)amino)pyrimidin-4-yl)amino)phenyl)acrylamide]	< 100
C=CC(=O)Nc1cc(Nc2ncc(Cl)c(Nc3cc(F)ccc3NS(C)(=O)=O)n2)c(OC)cc1N(C)CCN(C)C [Example 14, N-(5-((5-chloro-4-((5-fluoro-2-(methylsulfonamido)phenyl)amino)pyrimidin-2-yl)amino)-2-((2-(dimethylamino)ethyl)(methyl)amino)-4-methoxyphenyl)acrylamide]	< 100
C=CC(=O)Nc1cc(Nc2nc(Nc3ccccc3N(C)S(C)(=O)=O)c3sccc3n2)c(OC)cc1N(C)CCN(C)C [Example 8, N-(2-((2-(dimethylamino)ethyl)(methyl)amino)-4-methoxy-5-((4-((2-(N-methylmethylsulfon amido)phenyl)amino)thieno[3,2-d]pyrimidin-2-yl)amino)phenyl)acrylamide]	100 to 300
C=CC(=O)Nc1cc(Nc2ncc(Cl)c(Nc3cc(F)ccc3N(C)S(C)(=O)=O)n2)c(OC)cc1N(C)CCN(C)C [Example 13, N-(5-((5-chloro-4-((5-fluoro-2-(N-methylmethylsulfonamido)phenyl)amino)pyrimidin-2-yl)amino)-2-((2-(dimethylamino)ethyl)(methyl)amino)-4-methoxyphenyl)acrylamide]	< 100
